Measurements as given in ChEMBL document CHEMBL1149204, “A new lead compound for abscisic acid biosynthesis inhibitors targeting 9-cis-epoxycarotenoid dioxygenase” (Bioorg Med Chem Lett, 2004).

Legend:
[1] = Inhibitory activity was determined against 9-cis-epoxycarotenoid dioxygenase (NCED) expressed in Escherichia coli in presence of 9''-cis-neo-xanthin
Spinacia oleracea [2] = assay: Effect of compound at 100 uM concentration on ABA accumulation in spinachleaf slices determined as fresh weight of leaves (Experiment 2); assay type: functional
Spinacia oleracea [3] = assay: Effect of compound at 100 uM concentration on ABA accumulation in spinachleaf slices determined as fresh weight of leaves (Experiment 1); assay type: functional
Spinacia oleracea [4] = assay: Effect of compound at 100 uM concentration on ABA accumulation in spinachleaf slices determined as fresh weight of leaves (Experiment 3); assay type: functional
Spinacia oleracea [5] = assay: Effect of compound at 0.4 M concentration on ABA accumulation in spinachleaf slices determined as fresh weight of leaves (Experiment 3); assay type: functional
Spinacia oleracea [6] = assay: Effect of compound at 0.4 M concentration on ABA accumulation in spinachleaf slices determined as fresh weight of leaves (Experiment 1); assay type: functional
Spinacia oleracea [7] = assay: Effect of compound at 0.4 M concentration on ABA accumulation in spinachleaf slices determined as fresh weight of leaves (Experiment 2); assay type: functional

Row | Compound | IC50 [1] | ABA content per fresh weight (Spinacia oleracea [2]) | ABA content per fresh weight (Spinacia oleracea [3]) | ABA content per fresh weight (Spinacia oleracea [4]) | Fresh weight (Spinacia oleracea [5]) | Fresh weight (Spinacia oleracea [6]) | Fresh weight (Spinacia oleracea [7])
1 | COc1ccc(CCN(C)Cc2ccc(OC)c(OC)c2)cc1 | 87 µM |  |  |  |  |  | 
2 | COc1ccc(NC/C=C/c2ccc(OC)c(OC)c2)cc1 | 145 µM | 168.7 ng/g | 26.1 ng/g | 137.1 ng/g |  |  | 
3 | OC[C@@H](O)[C@@H](O)[C@H](O)[C@H](O)CO [MANNITOL] |  |  |  |  | 134.9 ng/g | 22.7 ng/g | 178.4 ng/g
4 | CC(Cc1ccc(O)c(O)c1)C(C)Cc1ccc(O)c(O)c1 (configuration not stated) [NORDIHYDROGUAIARETIC ACID] | 183 µM | 165.3 ng/g | 20.5 ng/g | 128.5 ng/g |  |  | 
5 | COC(=O)CN(C/C=C/c1ccc(OC)c(OC)c1)Cc1ccc(F)cc1 | 55 µM | 82.8 ng/g | 14 ng/g | 65.6 ng/g |  |  | 
6 | Oc1ccc(CCNCc2ccccc2O)cc1 | 160 µM |  |  |  |  |  | 
